According to PubChem BioAssay AID1259342 (Broad Institute, 2017):
The source made the active and inactive calls.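 How the source made its calls: active means fitted half-maximal inhibitory concentration AC50 at most ten times the top concentration tested; inconclusive means flat fit with 30 to 70% inhibition, or unusable fit; inactive means AC50 above ten times the top concentration.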

Biological target: E3 ubiquitin-protein ligase TRIM62 (Homo sapiens) (UniProt Q9BVG3)
Assay: inhibitors of TRIM62-driven CARD9 ubiquitylation, dose response, CARD9-TRIM62 disruptor project, biochemical, ubiquitin ELISA, AlphaLISA TUBE (AID 1259342);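 on AC50: potency is for inhibitors that reduce CARD9 ubiquitylation signal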
Details: TRIM62-mediated CARD9 ubiquitylation, AlphaLISA TUBE detection

E3 ubiquitin-protein ligase TRIM62 (Homo sapiens), sequence (Q9BVG3 whole entry, looked up): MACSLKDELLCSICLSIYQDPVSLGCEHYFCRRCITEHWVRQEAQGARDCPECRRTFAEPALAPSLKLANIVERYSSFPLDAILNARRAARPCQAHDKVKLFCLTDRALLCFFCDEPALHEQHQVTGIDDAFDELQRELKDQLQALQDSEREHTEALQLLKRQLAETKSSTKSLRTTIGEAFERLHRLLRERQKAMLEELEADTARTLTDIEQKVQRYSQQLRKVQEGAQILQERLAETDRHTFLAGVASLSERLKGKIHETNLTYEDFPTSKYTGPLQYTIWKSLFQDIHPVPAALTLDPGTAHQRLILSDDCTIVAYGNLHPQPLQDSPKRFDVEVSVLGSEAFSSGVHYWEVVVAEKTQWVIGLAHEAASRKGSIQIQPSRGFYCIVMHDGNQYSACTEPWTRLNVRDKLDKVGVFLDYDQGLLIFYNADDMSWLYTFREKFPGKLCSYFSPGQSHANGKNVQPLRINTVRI

Compound | AC50 | activity change, negative = inhibition (at 80 µM (top of the series)) | further results
CC1Cc2ccccc2N1CC(=O)NC(=O)NC(C)(C)C (centres undefined) | > 160 µM (inactive) |  | 
Cc1nn2c(c1-c1ccccc1)NC(c1ccco1)=CC2c1ccco1 (centres undefined) | 13 µM |  | 
Cc1cnc(C)c(N2CCN(C(=O)[C@H]3CC[C@@H](N)C3)CC2)n1 |  | inactive | 
O=C(O)COCC(=O)NCc1ccco1 |  | inactive | 
CN1C(=O)C(c2ccccc2[N+](=O)[O-])C(=O)c2ccccc21 (centres undefined) |  | inactive | 
CCCc1oc(C(=O)O)cc1CN |  | inactive | 
COc1ccc(-n2c(C)c3c(OC)cccc(=O)c3c2C)cc1 | 27.6 µM |  | 
O=c1oc(/C=C/c2ccc([N+](=O)[O-])s2)nc2ccccc12 | > 160 µM (inactive) |  | 
C[C@H](CO)N1C[C@H](C)[C@@H](CN(C)CC2CCCCC2)OCCCC[C@H](C)Oc2ccc(NS(C)(=O)=O)cc2C1=O | > 160 µM (inactive) |  | 
COCC(=O)n1nc(-c2ccco2)nc1NCc1cccs1 |  | inactive | 
CCOc1ccc(CNc2nc(-c3nnc(-c4ccc(F)cc4)o3)nc3ccccc23)cc1 |  | inactive | 
O=C(Nc1nc(-c2ccccn2)cs1)c1cccc(-n2cnnn2)c1 |  |  | activity change, negative = inhibition (at 38 µM (top of the series)): inactive
O=C(O)c1cc(-c2ccco2)nc2ccccc12 |  | inactive | 
O=C(CC1Nc2ccccc2OC1=O)Nc1ccc(Cl)cc1 (centres undefined) | > 160 µM (inactive) |  | 
Cc1cncc(-c2ccc(S(N)(=O)=O)cc2F)c1 |  | inactive | 
CS(=O)(=O)c1ccc2ccn(O)c2c1 |  | inactive | 
CC(C(=O)N1CCCC1)N1CCN(c2ccccc2O)CC1 (centres undefined) |  | inactive | 
O=C(Nc1ncccc1O)c1ccc(OCC2CCCO2)cc1 (centres undefined) |  | inactive | 
CCCN1CCCn2nc(CNC(=O)[C@@H](N)Cc3ccc(O)cc3)cc2C1 |  | inactive | 
O=C1c2ccccc2-c2nc3ccccc3nc21 | > 160 µM (inactive) |  | 
N#Cc1c(N)oc(-c2ccco2)c1-c1ccco1 | 29.6 µM |  | 
C[n+]1cccc2cccc(O)c21 |  | inactive | 
O=C(Nc1nc(-c2ccco2)c(-c2ccco2)s1)c1ccco1 | 4.63 µM |  | 
COc1ccc(NC(=O)c2nc(Nc3ccccc3)c3ccccc3n2)cc1 | 67.8 µM |  | 
O=C1c2cccnc2C(=O)N1Cc1ccc(S(=O)(=O)NCc2ccco2)cc1 |  | inactive | 
Nc1cc2c(cc1O)CCCC2 | 49.4 µM |  | 

Compound | AC50 | activity change, negative = inhibition (at 80 µM (top of the series)) | further results
O=S(=O)(c1ccc2nc(-c3ccco3)c(-c3ccco3)nc2c1)N1CCOCC1 | 31.1 µM |  | 
CCc1nccn1CCC(=O)N1C[C@H](CO)C[C@H](CN2CCCC2)C1 |  | inactive | 
O=C(O)c1ccccc1SC1CC(=O)N(Cc2ccccc2)C1=O (centres undefined) |  | inactive | 
Cc1ccc(Nc2nc(C(=O)Nc3ccc(Cl)cc3)nc3ccccc23)cc1 |  | inactive | 
O=C(NCCCN1CCOCC1)c1cc(-c2ccco2)nc2ccccc12 | 11.3 µM |  | 
COc1ccc(NC(=O)CN(C)C(=O)c2cc(-c3ccco3)nc3ccccc23)cc1 | 16.6 µM |  | 
CCOc1cc2c(C#N)c(N3CCNCC3)nc(N)c2c(N)n1 | > 160 µM (inactive) |  | 
O=C(Nc1ccc2oc(-c3ccncc3)nc2c1)c1ccc2c(c1)OCCO2 |  | inactive | 
O=C(O)C1Oc2cc3ccccc3cc2O1 | 3.02 µM |  | 
O=C(COC(=O)c1ccccc1Oc1ccccc1)NCc1ccco1 |  |  | activity change, negative = inhibition (at 38 µM (top of the series)): inactive
Cc1ccc2c(c1)C(N1CCCC1=O)CC(c1ccco1)N2 (centres undefined) |  | inactive | 
O=S(=O)(Nc1nccs1)c1ccc(-n2cccc2)cc1 | 17.4 µM |  | 
Cc1ccc(-c2nc(C)sc2CC(=O)NCc2ccco2)cc1 | 56.6 µM |  | 
O=C(O)c1ccccc1/C=N/NC(=O)c1cc(-c2ccco2)nc2ccccc12 | 3 µM |  | 
CC(=O)c1ccc(NC(=O)c2noc3c2CCC3)cc1 |  |  | activity change, negative = inhibition (at 38 µM (top of the series)): inactive
COc1ccc(N2CC3=C(N2)c2ccccc2CC3)cc1 | 54 µM |  | 
CCN1CCOC(=O)C1CC(=O)Nc1cccc(C)c1 (centres undefined) |  | inactive | 
CCCN1CCCn2nc(CNC(=O)[C@H]3CC[C@@H](N)C3)cc2C1 |  | inactive | 
CCn1ccnc1C1CCN(C(=O)CCn2c(C)nc3ccccc32)CC1 |  | inactive | 
O=C(Nc1nc(-c2ccco2)c(-c2ccco2)s1)C1CCC1 | 6.56 µM |  | 
O=C(CN1CCN(c2ccccc2O)CC1)NC(=O)NC1CCCC1 | > 160 µM (inactive) |  | 
Cc1cc(C)c2c(N)c(C(=O)Nc3cccc4ccccc34)sc2n1 |  | inactive | 
CCCC(=O)NCc1ccc2c(c1)cc(C)n2C | > 160 µM (inactive) |  | 
O=C(CCN1CCOCC1)c1ccc2c(c1)OCCO2 |  | inactive | 
COc1ccc(S(=O)(=O)N2CCOCC2)cc1NC(=O)c1cccc(-n2cccc2)c1 | 3.62 µM |  | 
c1cn(CCc2noc(C3CCCC3)n2)c(-c2cc3n(n2)CCCNC3)n1 |  | inactive | 

Compound | AC50 | activity change, negative = inhibition (at 80 µM (top of the series)) | further results
O=C1CC2(CCN(C(=O)Nc3ccccc3)CC2)CN1Cc1ccc(Cl)cc1 |  | inactive | 
COCCC(=O)N1CCCC2(CCN(CCN3CCCC3)C2=O)C1 (centres undefined) |  | inactive | 
NC(=O)C1(N2CCCCC2)CCN(c2ncc(NC(=O)c3ccc(F)cc3)cc2C(=O)O)CC1 |  |  | activity change, negative = inhibition (at 38 µM (top of the series)): inactive
O=C1NC(c2ccc(Br)cc2)Nc2sc3c(c21)CCC3 (centres undefined) |  |  | activity change, negative = inhibition (at 38 µM (top of the series)): inactive
Cc1cc(C(=O)Nc2nc3c(s2)CCc2ccccc2-3)no1 |  | inactive | 
CCN1CCN(C(=O)c2cc(-c3ccco3)nc3ccccc23)CC1 |  | inactive | 
O=C(Nc1ccc(OCC(=O)N2CCOCC2)cc1)c1cncc(Br)c1 |  | inactive | 
Cc1ccc(Nc2nc(C(=O)Nc3ccc(Br)cc3)nc3ccccc23)cc1 |  |  | activity change, negative = inhibition (at 38 µM (top of the series)): inactive
CCNc1ncc(C(=O)NCCc2nc3c(s2)CCCC3)cn1 |  | inactive | 
O=[N+]([O-])c1c(NCCCO)cc(SCc2ccco2)c2nonc12 |  | inactive | 
CCOC(=O)/C=C/S(=O)(=O)c1ccc(NC(C)=O)cc1 |  | inactive | 
C=CC(=O)N1CCCC2(CCN(CCN3CCCC3)C2=O)C1 (centres undefined) | 50.8 µM |  | 
O=C(COC(=O)CCC(=O)c1cccs1)NCc1ccco1 | 16.6 µM |  | 
CC(=O)c1sc2nc(-c3ccco3)ccc2c1N | 24.5 µM |  | 
NC(=O)C1(N2CCCCC2)CCN(c2ccc(NC(=O)c3ccccc3F)cc2C(=O)O)CC1 |  | inactive | 
CCC1c2ccc(C)n2CCN1C(=O)Nc1ccccc1C(=O)OC (centres undefined) | 72.5 µM |  | 
Cc1ccc(C)n1NC(=O)c1ccccc1O | 13.5 µM |  | 
C(=N\n1cnnc1SCc1ccccc1)/c1ccco1 |  | inactive | 
CCCOc1ccc(CCC(=O)O)cc1 |  | inactive | 
CC(=O)c1cccc(OCC(=O)N(C)CC(=O)NCc2ccco2)c1 | 1.35 µM |  | 
N#Cc1c2ccc(OCC(=O)NCc3ccco3)cc2n2ccccc12 |  | inactive | 
COc1cccc(NC(=O)CN(C)C(=O)c2cc3c(s2)CCC3)c1 | 8.47 µM |  | 
O=C(Nc1ccc2oc(-c3ccncc3)nc2c1)c1ccc2c(c1)OCO2 |  | inactive | 
O=C(CCn1cncn1)N1CCC(n2cc(-c3ccccn3)nn2)CC1 |  | inactive | 
N#CCSc1nc2c(c(=O)n1Cc1ccco1)C1(CCCC1)Cc1ccccc1-2 | 57 µM |  | 
O=C(Nc1ccon1)c1cc2cccnc2n(Cc2ccccc2)c1=O |  | inactive | 

Compound | AC50 | activity change, negative = inhibition (at 80 µM (top of the series)) | further results
O=C(Nc1nccs1)c1cc(-c2ccco2)nc2ccccc12 | 15.7 µM |  | 
O=[N+]([O-])c1ccc2nn(Cc3ccccc3)cc2c1 | > 160 µM (inactive) |  | 
Cc1c(/C=C/c2nc3ccccc3c(=O)n2-c2ccccn2)c2ccccc2n1C |  | inactive | 
Cc1occc1C(=O)NCc1cccc(CNC(=O)c2ccoc2C)c1 |  | inactive | 
COCCn1c(C)cc(-c2csc(N)n2)c1C | 68.3 µM |  | 
O=C(COc1cccnc1[N+](=O)[O-])c1ccc(Cl)s1 | 26.2 µM |  | 
O=C(Nc1nncs1)c1cc(-c2ccco2)nc2ccccc12 | 28.8 µM |  | 
O=S(=O)(Nc1nc2ccc(S(=O)(=O)N3CCCCC3)cc2s1)c1ccccc1 | 42.2 µM |  | 
CN(C)C(CN=C1NS(=O)(=O)c2ccccc21)c1ccco1 (centres undefined) |  | inactive | 
Nc1ccccc1Sc1nccc(C(F)(F)F)n1 | > 160 µM (inactive) |  | 
Cc1noc(CN(C)C(=O)c2cc(-c3ccco3)nc3c(C)c(Cl)ccc23)n1 | 49.2 µM |  | 
NC(=O)C1(N2CCCCC2)CCN(c2ncc(NC(=O)c3ccc(Cl)cc3)cc2C(=O)O)CC1 | 18.2 µM |  | 
Cc1cccc2nc(CSCc3ccco3)cn12 | 78.2 µM |  | 
N#Cc1sc2nc(-c3ccccc3)cc(-c3ccco3)c2c1N |  | inactive | 
O=[N+]([O-])c1ccc2cc[nH]c2c1 |  | inactive | 
N#Cc1c(-c2ccco2)cc(-c2ccccn2)nc1N |  | inactive | 
NC(=O)C1(N2CCCCC2)CCN(c2ncc(NC(=O)c3cccc(Cl)c3)cc2C(=O)O)CC1 | 14.2 µM |  | 
COCC(=O)N1CCCC2(CCN(CCN3CCCC3)C2=O)C1 (centres undefined) |  | inactive | 
CN(c1ccccc1C(=O)NCc1ccco1)S(C)(=O)=O |  | inactive | 
COc1ccc(S(=O)(=O)N2CCN(C(=O)c3cc4c(s3)CCC4)CC2)cc1 | 10.2 µM |  | 
O=C1CS/C(=N\N=C\c2ccco2)N1c1ccccc1 | 22.2 µM |  | 
FC(F)(F)c1cc(Cl)c2nnc(C(F)(F)Cl)n2c1 |  | inactive | 
O=C(NC1(C(F)(F)F)Oc2ccc(Cl)cc2O1)N1CCC2(CC1)OCCO2 (centres undefined) |  | inactive | 
O=C(O)C(c1ccccc1)C(c1ccccc1)c1ccccc1 (centres undefined) |  | inactive | 
O=C(NCc1ccco1)c1c2c(nc3ccccc13)CCC2 | 17.3 µM |  | 
CC(C)=CCC(C#N)(CC=C(C)C)C(=O)O |  | inactive | 
